Common to all, as to format: cell-based, mouse
In test [1] the test system is Flt3L+IL6 conditioned BM cells. In words: Immunosuppressive factors added to Step 2 culture: DC1 polarization. Particulars: factor added in Step 2, TLR agonist-induced. Here is the method:
FIG. 7A is a histogram showing Step 2 cultures (cells were re-plated in GMCSF and IL-4 at 0 hr, CpG+LPS added at 24 hr, FACS performed at 44 hr), except that listed immunosuppressive factors were added at 0 hr, 1 hr, 2 hr, or 4 hr of Step 2 culture, and supernatants analyzed by ELISA in triplicate for IL-12 p70 content at 44 hr of Step 2 culture. Error bars indicate s.d. This is representative of three experiments;
We investigated whether Flt3L+IL6 proliferative conditioning conferred uniform responsiveness to DC1 polarization stimuli even in the presence of putative immunosuppressive factors. We added IL10, TGFβ1 VEGF, or PGE2 at doses which equaled and exceeded those reported to inhibit the maturation of other DC preparations (Kao, J Y et al. J. Immunol. 170, 3806-3811 (2003); Kobie, J J et al. Cancer Res. 63, 1860-1864 (2003); Gabrilovich, D. et al. Blood 92, 4150-4166 (1998); Dikov, M M et al. J. Immunol. 174, 215-222 (2005); Shurin, M R et al. Int. J. Cancer 101, 61-68 (2002); Yang, A S et al. Cancer Res. 63, 2150-2157 (2003); Kalinski, P. et al. J. Immunol. 161, 2804-2809 (1998)).
(§1) Step 2 was initiated (0 hr) in CM, rmGMCSF and optionally rmIL4. Step 2 cultures were performed in 24 well cluster plates, 4 million BM cells per well in 2 ml CM. DC1 polarization stimuli such as CpG (ODN 1826, 5 μM) and LPS 50 ng/ml were added between 18-24 hrs, and cells harvested at 40-44 hrs for analyses. When included, immunosuppressive agents rmIL10, rmVEGF, rhTGFβ1 or PGE2 were added between 0 and 24 hrs of Step 2 culture at doses specified in Results. Alternatively, particulate tumor cells, either viable unirradiated, viable irradiated (10,000 cGy), or killed freeze-thawed lysate (Cohen, P A et al. Cancer Res. 54, 1055-1058 (1994)), were added to Step 2 BM cells. Viable tumor cells were sometimes labelled with CFSE (Molecular Probes, Eugene, Oreg.) to allow their identification and exclusion during subsequent FACS analyses (Peng, L. et al. J. Immunol. 169, 4811-4821 (2002)).

The subject of test [2] is CD34^pos stem cell subpopulation. In words: Step 1 proliferative culture of fresh bone marrow: numeric expansion. To be noted: for superimposed proliferative impacts: added to Step 1 culture. Here is the method:
FIG. 6 is a chart showing numeric expansion resulting from the exposure of bone marrow (BM) suspensions to various factors. BM freshly harvested from C57BL/6 mice was cultured for 6 days in the specific factors, then harvested and counted. Each bar represents 3-11 determinations±s.d., each performed in synchronous comparison to at least five other groups. […] Synergistic expansions reflected a 35-80 fold selective outgrowth of the CD34^pos subpopulation (see FIG. 10);
FIG. 10 is a histogram showing gross numeric expansion of fresh bone marrow (BM) reflective of selective outgrowth of the CD34^pos subpopulation. Freshly prepared mouse BM cell suspensions were stained with FITC-anti-CD34 mAb to enable isolation of CD34^pos and CD34^neg subpopulations by a FACSAria cell sorter. CD34^pos cells initially represented 10.8±7% of the total BM cells. The following groups were then cultured for 6 days in 75 cm^2 flasks, either in Flt3L+SCF+IL6 (striped bars) or in Flt3L+IL6 (solid bars): “Unfractionated BM” (12-15 million per flask); “FACS sorted CD34^neg cells” (12-15 million per flask); “FACS sorted CD34^pos cells” (2-3 million per flask); or “FACS sorted, unirradiated CD34^pos cells plus irradiated (3,000 cGy) CD34^neg cells.” Labels above bars indicate fold numeric expansion during the 6 day culture. […] (Not done=group not done);
We cultured fresh mouse BM in two stages, a 6-7 day proliferative phase (Step 1) and a 2-3 day post-proliferative phase (Step 2). […] FACS sorting experiments confirmed that such expansion represented a net 35-80 fold proliferation of the minor (<12%) CD34^pos stem cell subpopulation, with rapid dropout of the initially CD34^neg subpopulation (FIG. 10). Stem cell proliferation persisted well past day 7 if medium and factors were adequately replenished (not shown).
Single cell suspensions were prepared from the femurs and tibias of healthy mice (Kuriyama, H. et al. Dev. Biol. (Basel) 116, 169-178 (2004)). Following RBC lysis by ammonium chloride, no further processing was performed. […] BM cells were normally cultured for 6-7 days, harvested, counted, and washed twice in PBS prior to initiation of Step 2 cultures.

The test system of a further test is L-selectin^low T cells. Description: T cell co-cultures with variously conditioned DCs. Particulars: DCs from other conditioning treatments.
A further test relates to BM cells. Description: Step 2 culture: spontaneous DC maturation without exogenous maturation stimuli. Particulars: after Flt3L or Flt3L+IL6 conditioning.
Text: DC differentiation typically arrests at the immature stage unless DCs are exposed to additional signals such as CD40 ligation, calcium ionophore or TLR agonists (Xu, S. et al. J. Immunol. 171, 2251-2261 (2003); Bonifaz, L. et al. J. Exp. Med. 196, 1627-1638 (2002); Napolitani, G. et al. Nat. Immunol. 6, 769-776 (2005); Czerniecki, B J et al. J. Immunol. 159, 3823-3837 (1997); Mailliard, R B et al. Cancer Res. 64, 5934-5937 (2004)). […] Instead, uniform upregulation of MHC Class II and CD11c ensued within hours of transfer from Flt3L+IL6 into GMCSF, followed by upregulation of CD40, co-stimulatory molecules and CCR7 between 48 and 72 hours of Step 2 culture.
as §1

Procedure for L-selectin^low T cells: Step 2 DC cultures were performed in rGMCSF and rIL-4 with irradiated MCA-203 cells added at 24 hr and CpG+LPS added at 44 hr. Four hours later, DCs were harvested for co-culture with L-selectin^low T cells freshly harvested from MCA-203 tumor-bearing mice. T cells were co-cultured with DCs at an 8:1 ratio or were activated with immobilized anti-CD3. […] Cultures shown also received exogenous IL-2, IL-7 and IL-15.
Cultures shown also received exogenous IL2, IL7 and IL15.
Conditioned DC precursors were transferred to Step 2 culture, exposed to viable irradiated tumor, optionally further activated with CpG+LPS, then co-cultured with tolerized TDLN T cells from mice bearing the relevant tumor.
Prior to harvest of T cells from tumor-bearing mice, DCs were prepared under various Step 1 conditions in CM; Step 2 was performed in 1% non heat-deactivated mouse serum instead of FCS (CM-MS), during which BM cultures were exposed to viable irradiated tumor cells, then CpG+LPS as denoted in Results. On the day of DC harvest, T cells were freshly harvested from the tumor-draining lymph nodes of mice bearing 12 day tumors. The L-selectin^low (tolerized pre-effector) fraction of T cells was isolated by negative selection as described previously (Peng, L. et al. J. Immunol. 165, 5738-5749 (2000); Wang, L. et al. J. Translational Med. 2, 41 (2004)), and cultured in CM-MS with immobilized anti-CD3 (Peng, L. et al. J. Immunol. 165, 5738-5749 (2000); Wang, L. et al. J. Translational Med. 2, 41 (2004)) or variously conditioned DCs. Beginning on day 2 of T cell culture, some groups also received rhIL2 (24 I.U./m1), or rhIL2, rhIL7 (50 ng/ml) and rhIL15 (5 ng/ml). T cells were harvested for assays and adoptive therapy after 12 days of culture.

Consider “TGFI31: immunosuppressive factor, recombinant human TGFβ1”, for which, in test [1], the “impact upon DC1 polarization (phenotypic maturation, IL12)” value (from here on “impact upon DC1 polarization”) was “paradoxically enhanced both phenotypic maturation and IL12 secretion”.

As for `CCCCC[C@H](O)/C=C/[C@H]1[C@H](O)CC(=O)[C@@H]1C/C=C\CCCC(=O)O` [PGE2, prostaglandin E2, reference compound], the “impact upon DC1 polarization” value in test [1] is reported as “substantially inhibited”.

For VEGF, the “impact upon DC1 polarization” value in test [1] is given as “negligible impacts”.

As for fibronectin, in test [2], the superimposed proliferative impacts entry is reported as “negligible superimposed proliferative impacts”.

Regarding IL15, in the test with L-selectin^low T cells, the “rescue of DC toxicity to T cells by exogenous cytokine” value is on record as “could not be rescued”.

B1: rSCF: recombinant stem cell factor, alternative to mSCF (protein, UniProt P20826 26-190, looked up)
Soluble KIT ligand: KEICGNPVTDNVKDITKLVANLPNDYMITLNYVAGMDVLPSHCWLRDMVIQLSLSLTTLLDKFSNISEGLSNYSIIDKLGKIVDDLVLCMEENAPKNIKESPKRPETRSFTPEEFFSIFNRSIDAFKDFMVASDTSDCVLSSTLGPEKDSRVSVTKPFMLPPVAA
As to B1, in test [2] (rhIL6 100 ng/ml instead of mIL6, rSCF instead of mSCF), the “effectiveness as alternative Step 1 factor” value is recorded as “also effective”.

B2: thrombopoeitin: recombinant murine thrombopoeitin (protein, UniProt P40226 22-356, looked up)
Thrombopoietin: SPVAPACDPRLLNKLLRDSHLLHSRLSQCPDVDPLSIPVLLPAVDFSLGEWKTQTEQSKAQDILGAVSLLLEGVMAARGQLEPSCLSSLLGQLSGQVRLLLGALQGLLGTQLPLQGRTTAHKDPNALFLSLQQLLRGKVRFLLLVEGPTLCVRRTLPTTAVPSSTSQLLTLNKFPNRTSGLLETNFSVTARTAGPGLLSRLQGFRVKITPGQLNQTSRSPVQISGYLNRTHGPVNGTHGLFAGTSLQTLEASDISPGAFNKGSLAFNLQGGLPPSPSLAPDGHTPFPPSPALPTTHGSPPQLHPLFPDPSTTMPNSTAPHPVTMYPHPRNLSQET
In the case of B2, the superimposed proliferative impacts result in test [2] is recorded as “negligible superimposed proliferative impacts”.

B3: IL4: recombinant mouse IL4 (protein, UniProt P07750 21-140, looked up)
Interleukin-4: HIHGCDKNHLREIIGILNEVTGEGTPCTEMDVPNVLTATKNTTESELVCRASKVLRIFYLKHGKTPCLKKNSSVLMELQRLFRAFRCLDSSISCTMNESKSTSLKDFLESLKSIMQMDYS
Turning to B3, the “spontaneous DC maturation with exogenous IL4 in Step 2” value in the test on BM cells is on record as “even more robust”.

B4: IL7 (protein, UniProt P13232 26-177, looked up)
Interleukin-7: DCDIEGKDGKQYESVLMVSIDQLLDSMKEIGSNCLNNEFNFFKRHICDANKEGMFLFRAARKLRQFLKMNSTGDFDLHLLKVSEGTTILLNCTGQVKGRKPAALGEAQPTKSLEENKSLKEQKKLNDLCFLKRLLQEIKTCWNKILMGTKEH
For the molecule B4, the “rescue of DC toxicity to T cells by exogenous cytokine” value in the test with L-selectin^low T cells is given as “could not be rescued”.

B5: IL10: immunosuppressive factor, recombinant mouse IL10 (protein, UniProt P18893 19-178, looked up)
Interleukin-10: SRGQYSREDNNCTHFPVGQSHMLLELRTAFSQVKTFFQTKDQLDNILLTDSLMQDFKGYLGCQALSEMIQFYLVEVMPQAEKHGPEIKEHLNSLGEKLKTLRMRLRRCHRFLPCENKSKAVEQVKSDFNKLQDQGVYKAMNEFDIFINCIEAYMMIKMKS
Consider B5, for which the “impact upon DC1 polarization” value in test [1] was “negligible impacts”.

The record behind these values is US8247227B2, “Dendritic cell precursors” (The Cleveland Clinic Foundation, priority 2006, dated 2012).
